Data as given in US9750724B2, “Use of an aromatase inhibitor for the treatment of hypogonadism and related diseases” (Mereo BioPharma 2 Limited, priority 2011, dated 2017).
Like-named read-outs stand apart in the source and are kept apart here.

Columns and labels:
[1] = Single ascending dose study in pre- and post-menopausal women, pharmacokinetics; type: in vivo, human; conditions: female, human, in vivo, 2.5 mg
Source text: The drug concentration in plasma and/or serum samples can be determined by a number of different ways, e.g. HPLC or LC-MS/MS analyses. […]
A minimal toxic dose (MTD) was not reached. […] Table 3 presents the PK parameters based on preliminary analysis of the concentration-time profile obtained from this study.

[2] = tested on: serum testosterone, estradiol, LH and FSH; conditions: 2.5 mg weekly, cited from earlier work; for free testosterone: fixed dosing interval

With `N#Cc1ccc(C(c2ccc(C#N)cc2)n2cncn2)cc1` [Letrozole, letrozole] the Tmax [1] was 1 h, the AUC(0-t) ([1]; AUC (0-tlast) Mean) was 1670 ng·h/mL and the Cmax ([1]; Cmax Mean) was 33.5 ng/mL. For the same compound, the half-life ([1]; T1/2 Mean) was 69.6 h, the “LH and FSH” value ([2]; 12 OHH men) was “increased LH and FSH” and the total estradiol ([2]; 12 OHH men) was “suppressed total estradiol”. The total testosterone ([2]; 12 OHH men, de Boer 2005, Loves 2008) was “increased total testosterone into the normal range”, the free testosterone [2] was “rose above the normal range in approximately half of the subjects” and the free testosterone ([2]; listed as letrozole) was “excessive free testosterone levels in approximately half the subjects”.
